Molecules are shown by their SMILES. Calls of active or inactive are those of the source. No cut-off for these calls is given here.

Data set [1] addresses T1, Amyloid-beta precursor protein (Homo sapiens, UniProt P05067). Kind of data set: Inhibition of amyloid beta (1 to 42) (unknown origin) aggregation after 48 hrs by thioflavin T fluorescence assay.
Data set [2] relates to SH-SY5Y. Kind of data set: Cytotoxicity against human SH-SY5Y cells assessed as cell viability at 10 uM after 48 hrs by MTT assay. Format: cell-based. For orientation: Tetrazolium assays rely on reduction of a dye to a coloured formazan, in cell work by metabolically active cells.
The target in data set [3] is T1, Amyloid-beta precursor protein. Kind of data set: Potency index, ratio of curcumin IC50 to compound IC50 for inhibition of amyloid beta (1 to 42) (unknown origin) aggregation.
Data set [4] relates to SH-SY5Y. Put plainly: Neuroprotective activity against amyloid beta (1 to 42)-induced cytotoxicity in human SH-SY5Y cells at 5 to 80 uM after 48 hrs by MTT assay. Format: functional, cell-based.

T1 sequence (P05067 whole entry): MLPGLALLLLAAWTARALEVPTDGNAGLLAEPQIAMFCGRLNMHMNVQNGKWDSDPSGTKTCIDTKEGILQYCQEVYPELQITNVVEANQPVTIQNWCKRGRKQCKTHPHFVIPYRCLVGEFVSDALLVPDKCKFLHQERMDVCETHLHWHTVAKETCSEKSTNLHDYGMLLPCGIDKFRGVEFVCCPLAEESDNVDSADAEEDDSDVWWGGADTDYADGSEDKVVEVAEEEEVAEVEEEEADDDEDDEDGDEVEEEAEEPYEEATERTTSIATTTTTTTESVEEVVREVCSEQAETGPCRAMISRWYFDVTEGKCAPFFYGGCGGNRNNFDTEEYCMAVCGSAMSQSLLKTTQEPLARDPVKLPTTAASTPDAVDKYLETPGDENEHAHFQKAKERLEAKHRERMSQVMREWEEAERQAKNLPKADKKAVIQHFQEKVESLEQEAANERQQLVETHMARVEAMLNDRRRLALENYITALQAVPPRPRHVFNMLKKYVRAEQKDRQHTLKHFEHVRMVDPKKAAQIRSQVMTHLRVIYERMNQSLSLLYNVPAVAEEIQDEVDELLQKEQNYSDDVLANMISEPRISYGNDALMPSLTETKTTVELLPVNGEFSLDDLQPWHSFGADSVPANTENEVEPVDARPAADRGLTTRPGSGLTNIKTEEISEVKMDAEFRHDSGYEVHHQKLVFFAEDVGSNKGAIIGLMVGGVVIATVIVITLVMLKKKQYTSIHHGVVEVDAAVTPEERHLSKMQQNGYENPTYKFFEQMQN

As for `COc1cc(-c2cc(-c3c(O)cccc3O)[nH]n2)cc(OC)c1O`, the IC50 (usually the concentration that gives 50% inhibition) in data set [1] amounted to 2.9 µM. The Activity result in the data set on SH-SY5Y [2] is “Non-toxic”.

Consider `Oc1ccc(-c2cc(-c3c(O)cccc3O)[nH]n2)cc1O`, for which the IC50 in data set [1] turned out to be 1.3 µM. In addition, in data set [3], the Ratio IC50 stood at 3. Also, the Activity entry in the data set with SH-SY5Y [2] was “Non-toxic”. Moreover, the outcome in the data set on SH-SY5Y [4] was Active.

In data set [1], `Oc1ccc(-c2cc(-c3c(O)cccc3O)[nH]n2)cc1` had an IC50 of 15.8 µM.

`COc1cc(-c2cc(-c3c(O)cccc3O)[nH]n2)ccc1O` displayed an IC50 in data set [1] of 4.3 µM. The Activity result in the data set on SH-SY5Y [2] is “Non-toxic”.
